Among the data in ChEMBL document CHEMBL1221262, “Synthesis and antituberculosis activity of new fatty acid amides” (2010) are MIC values, retold here.

The subject of test [1] is Mycobacterium tuberculosis. The test is described as follows: Antitubercular activity against rifampicin-resistant Mycobacterium tuberculosis H37Rv ATCC 35338 after 7 days by resazurin microtiter assay. The test is classed as functional. Particulars: H37Rv ATCC 35338, 168 h.
Test [2] deals with Mycobacterium tuberculosis. The test is described as follows: Antitubercular activity against isoniazid-resistant Mycobacterium tuberculosis H37Rv ATCC 35822 after 7 days by resazurin microtiter assay. The format is functional. The note with it: H37Rv ATCC 35822, 168 h. (In general: Resazurin is reduced to fluorescent resorufin, in cell work by metabolically active cells.)

By MIC is commonly meant the smallest concentration in the dilution series that meets the test's criterion for growth inhibition. A lower MIC goes with inhibition by little substance.

≈ marks a conversion by molar mass, not a printed value. Bounds are passed on as bounds.

Consider `CCCCCCCC/C=C\CCCCCCCC(=O)N1CCCCC1`, for which the MIC is 25 µg/mL (≈ 71.5 µM) in test [1] and 12.5 µg/mL (≈ 35.8 µM) in test [2].
The corresponding values for `CCCCCCCC/C=C\CCCCCCCC(=O)N1CCOCC1` are 12.5 µg/mL (≈ 35.6 µM) and 6.25 µg/mL (≈ 17.8 µM).
In the case of `CCCCCC[C@@H](O)C/C=C\CCCCCCCC(=O)NCc1ccccc1`, the MIC in test [1] and in test [2] was 12.5 µg/mL (≈ 32.2 µM) in each case.
With `CCCCCC[C@@H](O)C/C=C\CCCCCCCC(=O)N[C@H](C)c1ccccc1`, the MIC in test [1] came to 25 µg/mL (≈ 62.2 µM); in test [2], 12.5 µg/mL (≈ 31.1 µM).
Regarding `CCCCCC[C@@H](O)C/C=C\CCCCCCCC(=O)N[C@@H](C)c1ccccc1`, the MIC in test [1] was 50 µg/mL (≈ 124 µM); in test [2], 100 µg/mL (≈ 249 µM).
Regarding `CCCCCC[C@@H](O)C/C=C\CCCCCCCC(=O)N1CCCC1`, the MIC in test [1] and in test [2] was 6.25 µg/mL (≈ 17.8 µM) throughout.
For the compound `CCCCCC[C@@H](O)C/C=C\CCCCCCCC(=O)N1CCOCC1`, the MIC in test [1] stood at 12.5 µg/mL (≈ 34 µM); in test [2], 6.25 µg/mL (≈ 17 µM).
The corresponding values for `CCCCC/C=C\C/C=C\CCCCCCCC(=O)N[C@H](C)c1ccccc1` are 25 µg/mL (≈ 65.2 µM) and 12.5 µg/mL (≈ 32.6 µM).
In the case of `CCCCC/C=C\C/C=C\CCCCCCCC(=O)N[C@@H](C)c1ccccc1`, the MIC in test [1] worked out at 12.5 µg/mL (≈ 32.6 µM); in test [2] it was 6.25 µg/mL (≈ 16.3 µM).
Regarding `CCCCC/C=C\C/C=C\CCCCCCCC(=O)N1CCCC1`, the MIC in test [1] and in test [2] was 12.5 µg/mL (≈ 37.5 µM) in each case.
For `CCCCCCCCCCCCCCCC(=O)N[C@H](C)c1ccccc1`, the MIC in test [1] and in test [2] was more than 100 µg/mL in each case.
For `CCCCCCCCCCCCCCCC(=O)N[C@@H](C)c1ccccc1`, the MIC in test [1] and in test [2] was more than 100 µg/mL each time.
For `CCCCCCCCCCCCCCCC(=O)N1CCCC1`, the MIC in test [1] and in test [2] was 25 µg/mL (≈ 80.8 µM) each time.
Regarding `CCCCCCCCCCCCCCCC(=O)N1CCCCC1`, the MIC in test [1] and in test [2] was 25 µg/mL (≈ 77.3 µM) in each case.
In the case of `CCCCCCCCCCCCCCCCCC(=O)N[C@H](C)c1ccccc1`, the MIC in test [1] and in test [2] was more than 100 µg/mL throughout.
With `CCCCCCCCCCCCCCCCCC(=O)N[C@@H](C)c1ccccc1`, the MIC in test [1] and in test [2] was more than 100 µg/mL in each case.
As to `CCCCCCCC/C=C\CCCCCCCC(=O)NCc1ccccc1`, in test [2], the MIC was determined as 100 µg/mL (≈ 269 µM).
On to `CCCCCCCC/C=C\CCCCCCCC(=O)N[C@H](C)c1ccccc1`, for which the MIC in test [1] came out at 50 µg/mL (≈ 130 µM); in test [2] it was 12.5 µg/mL (≈ 32.4 µM).
The compound `CCCCCCCC/C=C\CCCCCCCC(=O)NC(C)c1ccccc1` (configuration not stated) displayed an MIC in test [1] of 100 µg/mL (≈ 259 µM).
Consider `CCCCCCCC/C=C\CCCCCCCC(=O)N1CCCC1`, for which the MIC turned out to be 12.5 µg/mL (≈ 37.2 µM) in test [1] and 6.25 µg/mL (≈ 18.6 µM) in test [2].
As to `CCCCCCCC/C=C\CCCCCCCC(=O)NCCO` [OLEOYLETHANOLAMIDE], the MIC was found to be 25 µg/mL (≈ 76.8 µM) in test [1] and 12.5 µg/mL (≈ 38.4 µM) in test [2].
On to `CCCCCCCCCCCCCCCC(=O)NCCO` [PALMIDROL], for which the MIC in test [1] and in test [2] was more than 100 µg/mL throughout.
